Experimental data taken from patent US5191079A, “Quinolinecarboxylic acid derivatives” (priority 1990, dated 1993).
In brackets after ≈: the same amount, converted by molar mass.

What was measured:
[1] = test system: Staphylococcus aureus ATCC 9144; experiment: MIC, Experiment 1; format: cell-based; settings: ATCC9144, S. aureus ATCC 9144, Gram +, read-out: Min. inhib. concentr. (MIC)
Experimental: (§1) The compounds of the present invention (B, E, G, H, M, N, O, P and Q) were each dissolved in dimethylsulfoxide to prepare a solution of 5000 μg/ml in concentration. The compounds of the present invention (I, J and K) and the known compound (Y) were each dissolved in sterilized distilled water to prepare a solution of 5000 μg/ml in concentration. Each solution was diluted with sterilized distilled water to prepare a standard solution with a concentration of each test compound: 1000 μg/ml. The test was carried out by a method as appointed by Japan Society of Chemotherapy [cf. Chemotherapy, 29, 76-79 (1981), TOKYO].
(§2) As to Streptococcus pneumoniae and Streptococcus pyogenes, Brain heart infusion broth (manufactured by DIFCO) was used as the medium for the preculture thereof, and a heart infusion agar medium containing 5% defibrinated horse blood (manufactured by Nissui Seiyaku K. K., Japan) was used as the medium for the measurement of minimum inhibitory concentration (MIC). As to other microorganisms, a sensitivity test broth (manufactured by Nissui Seiyaku K. K.) was used as the medium for the preculture thereof, and a sensitivity test agar medium (manufactured by Nissui Seiyaku K. K.) was used as the medium for the measurement of MIC.

[2] = test system: Pseudomonas aeruginosa NCTC 10490; experiment: MIC, Experiment 1; format: cell-based; settings: NCTC10490, P. aeruginosa NCTC 10490, Gram -, read-out: Min. inhib. concentr. (MIC)
Experimental: as §1, §2

[3] = test system: Staphylococcus aureus Cowan I (IID 975); experiment: MIC, Experiment 1; format: cell-based; settings: IID975, S. aureus Cowan I (IID 975), Gram +, read-out: Min. inhib. concentr. (MIC)
Experimental: as §1, §2

[4] = test system: Escherichia coli NIHJ JC-2; experiment: MIC, Experiment 1; format: cell-based; settings: NIHJJC2, E. coli NIHJ JC-2, Gram -, read-out: Min. inhib. concentr. (MIC)
Experimental: as §1, §2

Bacillus cereus IAM 1029 = experiment: MIC, Experiment 1; format: cell-based; settings: IAM1029, B. cereus IAM 1029, Gram +, read-out: Min. inhib. concentr. (MIC)
Experimental: as §1, §2

[5] = test system: Staphylococcus aureus FDA 209P JC-1; experiment: MIC, Experiment 1; format: cell-based; settings: FDA209P, S. aureus FDA 209P JC-1, Gram +, read-out: Min. inhib. concentr. (MIC)
Experimental: as §1, §2

[6] = test system: Micrococcus luteus ATCC 9341; experiment: MIC, Experiment 1; format: cell-based; settings: ATCC9341, M. luteus ATCC 9341, Gram +, read-out: Min. inhib. concentr. (MIC)
Experimental: as §1, §2

[7] = test system: Staphylococcus aureus IID 803; experiment: MIC, Experiment 1; format: cell-based; settings: IID803, S. aureus IID 803, Gram +, read-out: Min. inhib. concentr. (MIC)
Experimental: as §1, §2

[8] = test system: Acinetobacter calcoaceticus Ac 54; experiment: MIC, Experiment 1; format: cell-based; settings: AC54, A. calcoaceticus Ac 54, Gram -, read-out: Min. inhib. concentr. (MIC)
Experimental: as §1, §2

[9] = test system: Staphylococcus aureus Terajima (IID 670); experiment: MIC, Experiment 1; format: cell-based; settings: IID670, S. aureus Terajima (IID 670), Gram +, read-out: Min. inhib. concentr. (MIC)
Experimental: as §1, §2

[10] = test system: Staphylococcus aureus FDA 243; experiment: MIC, Experiment 1; format: cell-based; settings: FDA243, S. aureus FDA 243, Gram +, read-out: Min. inhib. concentr. (MIC)
Experimental: as §1, §2

[11] = test system: Klebsiella pneumoniae PCI-602; experiment: MIC, Experiment 1; format: cell-based; settings: PCI602, K. pneumoniae PCI-602, Gram -, read-out: Min. inhib. concentr. (MIC)
Experimental: as §1, §2

[12] = test system: Bacillus subtilis ATCC 6633; experiment: MIC, Experiment 1; format: cell-based; settings: ATCC6633, B. subtilis ATCC 6633, Gram +, read-out: Min. inhib. concentr. (MIC)
Experimental: as §1, §2

[13] = test system: Proteus mirabilis IFO 3849; experiment: MIC, Experiment 1; format: cell-based; settings: IFO3849, P. mirabilis IFO 3849, Gram -, read-out: Min. inhib. concentr. (MIC)
Experimental: as §1, §2

Enterobacter cloacae 963 = experiment: MIC, Experiment 1; format: cell-based; settings: E. cloacae 963, Gram -, read-out: Min. inhib. concentr. (MIC)
Experimental: as §1, §2

[14] = test system: clinically isolated Enterococcus faecalis; experiment: In vitro antibacterial activity against clinical isolates, Experiment 2; format: cell-based
Experimental: (§3) The above solutions were then diluted with sterilized distilled water to prepare a standard solution with a concentration of the test compound: 1000 μg/ml each.
(§4) For the preculture of each microorganism, there was used as the medium a sensitivity test broth (manufactured by Nissui Seiyaku K. K., Japan), and for the measurement of MIC, there was used a sensitivity test agar medium (manufactured by Nissui Seiyaku K. K.).
(§5) The clinically isolates used above were isolated from Nov. 1988 to Jun. 1989 and were obtained from Research Section, Tokyo Clinical Research Center.

[15] = test system: clinically isolated Enterococcus faecium; experiment: as above; format: cell-based
Experimental: as §3, §4, §5

[16] = test system: clinically isolated Staphylococcus epidermidis; experiment: as above; format: cell-based; settings: Staphylococcus epidermidis
Experimental: as §3, §4, §5

[17] = test system: clinically isolated Staphylococcus aureus; experiment: as above; format: cell-based
Experimental: as §3, §4, §5

[18] = test system: Staphylococcus aureus IID 803; experiment: Effect on treatment of general infectious disease (systemic infection in mice), Experiment 3; format: in vivo, Staphylococcus aureus; ddY male mice; settings: Staphylococcus aureus, IID803, 168 h; oral, 1 h after i.p. infection, mice, survival after one week, average of several tests; read-out: 50% effective dose (ED50)
Experimental: Staphylococcus aureus IID 803
The test microorganism was subjected to standing culture in Brain heart infusion broth (manufactured by DIFCO) at 37° C. for 16 to 18 hours. The culture was then diluted with PBS (Dulbecco's phosphate buffered saline) to adjust the concentration of bacteria to 4×10^7 -8×10^7 CFU/ml. The mixture was mixed with an equivalent amount of 10% (w/v) Mucin (BACTO MUCIN BACTERIOLOGICAL, manufactured by Difco Co.) to prepare a bacterial suspension. The thus prepared bacterial suspension (0.5 ml each) was intraperitoneally inoculated to ddY male mice (5 weeks age, weighing 24-27 g, 5 mice in each group), to infect the animals, by which systemic infectious model was prepared.
The mice were daily observed for one week, and from the survival number of mice after one week, the 50% effective dose (ED50) was calculated by Weil method. This test was repeated several times and the average of ED50 was calculated.

`CC1COc2c(N3CCN(C)CC3)c(F)cc3c(=O)c(C(=O)O)cn1c23` (stereo not drawn) [Compound (X), 9-Fluoro-3-methyl-10-(4-methyl-1-piperazinyl)-7-oxo-2,3-dihydro-7H-pyrido[1,2,3-de][1,4]benzoxazine-6-carboxylic acid, reference compound] showed an MIC [1] of 0.39 µg/mL (≈ 1.08 µM), an MIC [2] of 1.56 µg/mL (≈ 4.32 µM) and an MIC [3] of 0.39 µg/mL (≈ 1.08 µM). It also gave an MIC [4] of 0.1 µg/mL (≈ 0.277 µM), an MIC (Bacillus cereus IAM 1029) of 0.39 µg/mL (≈ 1.08 µM) and an MIC [5] of 0.39 µg/mL (≈ 1.08 µM). The MIC [6] was 3.13 µg/mL (≈ 8.66 µM), the MIC [7] was 0.39 µg/mL (≈ 1.08 µM) and the MIC [8] was 0.39 µg/mL (≈ 1.08 µM). It also gave an MIC [9] of 0.39 µg/mL (≈ 1.08 µM), an MIC [10] of 0.39 µg/mL (≈ 1.08 µM) and an MIC [11] of 0.05 µg/mL (≈ 0.138 µM). It also gave an MIC [12] of 0.1 µg/mL (≈ 0.277 µM), an MIC [13] of 0.39 µg/mL (≈ 1.08 µM) and an MIC (Enterobacter cloacae 963) of 0.2 µg/mL (≈ 0.553 µM). The MIC50 [14] was 3.13 µg/mL (≈ 8.66 µM), the MIC ([14]; 25 clinical strains E. faecalis) was 1.56 to 100 µg/mL (≈ 4.32 to 277 µM) and the MIC90 ([14]; 25 clinical strains E. faecalis, 90% of strains, read-out: MIC90) was 50 µg/mL (≈ 138 µM). It also gave an MIC90 [15] of 100 µg/mL (≈ 277 µM), an MIC50 ([15]; 25 clinical strains E. faecium, 50% of strains, read-out: MIC50) of 25 µg/mL (≈ 69.2 µM) and an MIC90 [16] of 25 µg/mL (≈ 69.2 µM). The MIC ([16]; 25 clinical strains S. epidermidis) was 0.2 to 50 µg/mL (≈ 0.553 to 138 µM), the MIC50 ([16]; 25 clinical strains S. epidermidis, 50% of strains, read-out: MIC50) was 0.78 µg/mL (≈ 2.16 µM) and the MIC50 [17] was 1.56 µg/mL (≈ 4.32 µM). For the same molecule, the MIC90 [17] was 25 µg/mL (≈ 69.2 µM), the MIC ([17]; 25 clinical strains S. aureus incl. 16 methicillin resistant) was 0.39 to 50 µg/mL (≈ 1.08 to 138 µM) and the ED50 [18] was 11.4 mg/kg.
